The values that follow come from the PolyMetriX glass transition set.

In turn, `*C(=O)Nc1ccc(C(=O)Nc2ccc(NC(=O)c3ccc4[nH]c(-c5ccc(-c6nc7cc(*)ccc7[nH]6)cc5)nc4c3)cc2)cc1` (repeat unit) returned a glass transition temperature of 300.00 °C.

For `*C(=O)Nc1ccc(C(=O)Nc2ccc(NC(=O)c3ccc4[nH]c(-c5cccc(-c6nc7cc(*)ccc7[nH]6)c5)nc4c3)cc2)cc1` (repeat unit), the glass transition temperature amounted to 322.00 °C. In the case of `*C(=O)Nc1ccc(NC(=O)Nc2ccc(NC(=O)c3ccc4c(c3)C(=O)N(c3ccc(NC(=O)Nc5ccc(N6C(=O)c7ccc(*)cc7C6=O)cc5)cc3)C4=O)cc2)cc1` (repeat unit) it was 208.00 °C.

As for `*C(=O)Nc1ccc(NC(=O)c2ccc(N3C(=O)c4ccc(*)cc4C3=O)cc2)cc1` (repeat unit), the glass transition temperature came to 297.50 °C. The result for `*C(=O)Nc1ccc(NC(=O)c2ccc(NC(=O)c3ccc(-c4nc5cc(*)ccc5[nH]4)cc3)cc2)cc1` (repeat unit) reads 295.00 °C.

As for `*C(=O)Nc1ccc(NC(=O)c2ccc3c(c2)C(=O)N(c2ccc(-c4sc(-c5ccc(N6C(=O)c7ccc(*)cc7C6=O)cc5)c(-c5ccccc5)c4-c4ccccc4)cc2)C3=O)cc1` (repeat unit), the glass transition temperature was 333.00 °C. The result for `*C(=O)Nc1ccc(NC(=O)c2ccc3c(c2)C(=O)N(c2ccc(S(=O)(=O)c4ccc(N5C(=O)c6ccc(*)cc6C5=O)cc4)cc2)C3=O)cc1` (repeat unit) reads 368.00 °C. In the case of `*C(=O)Nc1ccc(Oc2ccc(-c3ccc(Oc4ccc(NC(=O)c5ccc6c(c5)C(=O)N(c5ccc(Oc7ccc(N8C(=O)c9ccc(*)cc9C8=O)cc7)cc5)C6=O)cc4)cc3)cc2)cc1` (repeat unit) it was 262.00 °C. In the case of `*C(=O)Nc1ccc(Oc2ccc(C(=O)c3ccc(Oc4ccc(NC(=O)c5ccc(*)nc5)cc4)cc3)cc2)cc1` (repeat unit), the glass transition temperature is 170.00 °C.

Molecule `*C(=O)Nc1ccc(Oc2ccc(C(c3ccc(Oc4ccc(NC(=O)c5ccc6c(c5)C(=O)N(c5ccc(Oc7ccc8ccc(Oc9ccc(N%10C(=O)c%11ccc(*)cc%11C%10=O)cc9)cc8c7)cc5)C6=O)cc4)cc3)(C(F)(F)F)C(F)(F)F)cc2)cc1` (repeat unit) came in with a glass transition temperature of 250.00 °C. In the case of `*C(=O)Nc1ccc(Oc2ccc(C3(c4ccc(Oc5ccc(NC(=O)c6ccc7c(c6)C(=O)N(c6ccc(N8C(=O)c9ccc(*)cc9C8=O)cc6)C7=O)cc5)cc4)NC(=O)c4ccccc43)cc2)cc1` (repeat unit) it was 322.00 °C; in that of `*C(=O)Nc1ccc(Oc2ccc(C3(c4ccc(Oc5ccc(NC(=O)c6ccc7c(c6)C(=O)N(c6ccc(Oc8ccc(N9C(=O)c%10ccc(*)cc%10C9=O)cc8)cc6)C7=O)cc5)cc4)NC(=O)c4ccccc43)cc2)cc1` (repeat unit), 320.00 °C. In the case of `*C(=O)Nc1ccc(Oc2ccc(C3(c4ccc(Oc5ccc(NC(=O)c6ccc7c(c6)C(=O)N(c6ccc(Oc8cccc(N9C(=O)c%10ccc(*)cc%10C9=O)c8)cc6)C7=O)cc5)cc4)NC(=O)c4ccccc43)cc2)cc1` (repeat unit) it was 272.00 °C; in that of `*C(=O)Nc1ccc(Oc2ccc(C3(c4ccc(Oc5ccc(NC(=O)c6ccc7c(c6)C(=O)N(c6ccc(Oc8cccc(Oc9ccc(N%10C(=O)c%11ccc(*)cc%11C%10=O)cc9)c8)cc6)C7=O)cc5)cc4)NC(=O)c4ccccc43)cc2)cc1` (repeat unit), 267.00 °C.

For the molecule `*C(=O)Nc1ccc(Oc2ccc(N3C(=O)CC(N4C(=O)c5ccc(*)cc5C4=O)C3=O)cc2)cc1` (repeat unit), the glass transition temperature is 223.00 °C.

The molecule `*CCOCCOCCOc1ccc(NC(=O)c2cccc(C(=O)Nc3ccc(O*)cc3)c2)cc1` (repeat unit) yielded a glass transition temperature of 129.00 °C. Regarding `*Oc1cc(Oc2ccc(NC(=O)c3cc(NC(=O)C45CC6CC(CC(C6)C4)C5)cc(C(=O)Nc4ccc(*)cc4)c3)cc2)ccc1C12CC3CC(CC(C3)C1)C2` (repeat unit), the glass transition temperature turned out to be 345.00 °C. In the case of `*Oc1ccc(NC(=O)c2ccc(C(=O)Nc3ccc(Oc4ccc(C5(c6ccc(*)cc6)CC6CCC5C6)cc4)cc3)cc2)cc1` (repeat unit) it was 281.00 °C; in that of `*Oc1ccc(NC(=O)c2ccc(C(c3ccc(C(=O)Nc4ccc(Oc5ccc(C6(c7ccc(*)cc7)C7CC8CC(C7)CC6C8)cc5)cc4)cc3)(C(F)(F)F)C(F)(F)F)cc2)cc1` (repeat unit), 241.00 °C; in that of `*Oc1ccc(NC(=O)c2ccc(Oc3ccc(C(=O)Nc4ccc(Oc5ccc(C6(c7ccc(*)cc7)C7CC8CC(C7)CC6C8)cc5)cc4)cc3)cc2)cc1` (repeat unit), 230.00 °C.

`*Oc1ccc(NC(=O)c2ccc(S(=O)(=O)c3ccc(C(=O)Nc4ccc(Oc5ccc(C(c6ccc(*)cc6)(C(F)(F)F)C(F)(F)F)cc5)cc4)cc3)cc2)cc1` (repeat unit) had a glass transition temperature of 250.00 °C. In turn, `*Oc1ccc(NC(=O)c2ccc(S(=O)(=O)c3ccc(C(=O)Nc4ccc(Oc5ccc(C6(c7ccc(*)cc7)C7CC8CC(C7)CC6C8)cc5)cc4)cc3)cc2)cc1` (repeat unit) came in with a glass transition temperature of 252.00 °C. Turning to `*Oc1ccc(NC(=O)c2ccc(S(=O)(=O)c3ccc(C(=O)Nc4ccc(Oc5ccc(C6(c7ccc(*)cc7)CC7CCC6C7)cc5)cc4)cc3)cc2)cc1` (repeat unit), the glass transition temperature came to 287.00 °C.

Molecule `*Oc1ccc(NC(=O)c2ccc3cc(C(=O)Nc4ccc(Oc5ccc(C6(c7ccc(*)cc7)C7CC8CC(C7)CC6C8)cc5)cc4)ccc3c2)cc1` (repeat unit) displayed a glass transition temperature of 266.00 °C. Molecule `*Oc1ccc(NC(=O)c2cccc(C(=O)Nc3ccc(Oc4ccc(C(c5ccc(*)cc5)(C(F)(F)F)C(F)(F)F)cc4)cc3)c2)cc1` (repeat unit) showed a glass transition temperature of 228.50 °C.

Turning to `*Oc1ccc(Oc2ccc(C(=O)Nc3ccc(Oc4ccc(-c5ccc(Oc6ccc(NC(=O)c7ccc(*)cc7)cc6)cc5)cc4)cc3)cc2)cc1-c1ccccc1` (repeat unit), the glass transition temperature came out at 232.00 °C. In the case of `*Oc1cccc(NC(=O)c2ccc(C(=O)Nc3ccc(Oc4ccc(C(=O)c5ccc(*)cc5)cc4)cc3)cc2)c1` (repeat unit) it was 126.00 °C; in that of `*c1ccc(Oc2ccc(C(=O)c3ccc(C(=O)c4ccc(Oc5ccc(-c6cc(*)n(-c7ccccc7)n6)cc5)cc4)cc3)cc2)cc1` (repeat unit), 205.00 °C. In the case of `*c1ccc(Oc2ccc(NC(=O)c3cc(C(=O)Nc4ccc(Oc5ccc(-c6nnc(*)o6)cc5)cc4)cc(N4C(=O)c5ccccc5C4=O)c3)cc2)cc1` (repeat unit) it was 285.00 °C.

As for `*c1ccc(Oc2ccc(NC(=O)c3ccc4c(c3)C(=O)N(c3ccc(Cc5ccc(N6C(=O)c7ccc(C(=O)Nc8ccc(Oc9ccc(C%10(*)NC(=O)c%11ccccc%11%10)cc9)cc8)cc7C6=O)cc5)cc3)C4=O)cc2)cc1` (repeat unit), the glass transition temperature was found to be 302.00 °C. In the case of `*c1ccc2c(c1)C(=O)N(c1cccc(C(=O)Nc3ccc(Oc4ccc(C(c5ccc(Oc6ccc(NC(=O)c7cccc(N8C(=O)c9ccc(C(*)(C(F)(F)F)C(F)(F)F)cc9C8=O)c7)cc6)cc5)(C(F)(F)F)C(F)(F)F)cc4)cc3)c1)C2=O` (repeat unit) it was 266.00 °C.
